# Measurements published in PMC5931096, “A Phase I study of the novel immunomodulatory agent PG545 (pixatimod) in subjects with advanced solid tumours” (British Journal of Cancer, 2018).
# Entries after “also recorded” stand apart in the source; their conditions may differ. Read-outs that look alike come from different tables or passages of the source.
# How the values were obtained:
# [1] = test system: advanced solid malignancies; assay: Clinical activity by RECIST 1.1; format: in vivo, human
# Procedure: All patients were assessed for safety, those who received at least one dose of PG545 were evaluated for efficacy. Safety assessment included the incidence of all adverse events (AEs), irrespective of relationship to study drug, according to the National Cancer Institute Common Terminology Criteria for Adverse Events, version 4.0, and the incidence of patients experiencing dose modifications and/or premature discontinuation of study drug. Dose-limiting toxicities (DLTs) used to determine the MTD were defined as occurring during Cycle 1 of treatment only and related to PG545 according to investigator assessment. If no DLT occurred in the first three subjects, the next three-subject cohort was enrolled at the next highest available dose level. If a single DLT occurred, an additional three subjects was enrolled at the same dose level. Dose escalation continued until two subjects of the cohort experienced a DLT; this was defined as the toxic dose level. The dose-escalation phase was completed and MTD determined by reducing the dose to the next lowest dose compared to the toxic dose and expanding this cohort to at least 6 subjects.
# Subjects with measurable disease were assessed by computed tomography at baseline and every 8 weeks according to Response Evaluation Criteria in Solid Tumours (RECIST), version 1.1 criteria.
# [2] = Plasma pharmacokinetics (LC-MS/MS, population PK model and NCA); format: in vivo, human; conditions: for AUC / Cmax / AUC(0-t) / half-life: human, plasma, intravenous
# Procedure: Plasma samples were obtained for the first (day 1) and fourth (day 22) doses, as follows: (1) pre-dosing (no more than 4 h prior to infusion start); (2) mid-point of infusion; prior to completion of infusion; 30 min post-infusion; then 2, 4, 6, 24, 48, 72, 144 and 168 h post-infusion. Samples were analysed for PG545 concentration using a validated liquid chromatography with tandem mass spectrometry (LC-MS/MS) assay.[13] A population PK model was developed using NONMEM® and individual non-compartmental analysis-type exposure parameter estimation was also performed.
# pDC and NK cells = assay: Flow cytometry of PBMC for DC and NK cell activation; format: in vivo, human
# Procedure: Plasma and peripheral blood mononuclear cell (PBMC) samples were obtained at various points for PD assessment with the exception of the 25 mg cohort, where PBMC were not collected. Plasma samples were analysed for the concentration of various markers, including cytokines, chemokines and heparanase using commercial ELISA (LifeSpan Biosciences, Seattle, WA), and array kits (Quansys, Logan, UT).
# Cryopreserved PBMC samples were analysed by flow cytometry for changes in abundance and activation status of DC and NK cells at day 3 post-treatment compared with pre-dose samples (day 1). Given the stimulatory nature of PG545 via TLR9 reported in mice,[18] efforts were primarily focussed on the assessments of pDC and NK cells though certain subjects with available sample underwent additional analyses. To assess pDC, cells were stained with antibodies to HLADR-peCy7, CD303-FITC, IFNα-647 (BD Biosciences, Franklin Lakes, NJ). To assess NK cells, cells were stained with antibodies to CD335-PE, CD3-APC, IFNγ-FITC (BD Biosciences). All intracellular cytokine staining samples were stimulated by 100 ng/mL PMA, 100 ng/mL ionomycin and 5 μg/mL Brefeldin A for 4 h at 37 °C. Samples were acquired using FACSCanto flow cytometers (BD Biosciences).
# [3] = test system: tumour-associated macrophages (TAM); parameters: method as in PMID 24970482, PMID 23696215; conditions: preclinical cancer models; cited from earlier work
# [4] = 100 mg, dose number 1, NCA mean
# [5] = 100 mg, dose number 4, NCA mean
# [6] = 150 mg, dose number 1, NCA mean
# [7] = 150 mg, dose number 4, NCA mean
smiles,measurement,setting,value
CC(C)CCC[C@@H](C)[C@H]1CC[C@H]2[C@@H]3CC[C@H]4C[C@@H](O[C@@H]5O[C@H](COS(=O)(=O)O)[C@@H](O[C@H]6O[C@H](COS(=O)(=O)O)[C@@H](O[C@H]7O[C@H](COS(=O)(=O)O)[C@@H](O[C@H]8O[C@H](COS(=O)(=O)O)[C@@H](OS(=O)(=O)O)[C@H](OS(=O)(=O)O)[C@H]8OS(=O)(=O)O)[C@H](OS(=O)(=O)O)[C@H]7OS(=O)(=O)O)[C@H](OS(=O)(=O)O)[C@H]6OS(=O)(=O)O)[C@H](OS(=O)(=O)O)[C@H]5OS(=O)(=O)O)CC[C@]4(C)[C@H]3CC[C@]12C [PG545],Estimated median duration of SD,[1]; 95% confidence interval from 39 days to 62 days,57 days
same,Disease control rate,"[1]; evaluable subjects (six of sixteen), at 8 weeks",38%
same,Best response,"[1]; human, in vivo",stable disease up to 24 weeks
same,Objective responses,[1]; monotherapy,No objective responses were reported
same,Patients with stable disease (SD) at 8 weeks,"[1]; of sixteen patients assessed, RECIST 1.1",six
same,Exposure (AUC0–168 and Cmax) relative to dose,[2]; 150 mg dose level,sub-proportional
same,Dose proportionality of exposure,[2]; 25-150 mg,proportional up to 100 mg; also recorded: general dose-proportionate exposure up to 100 mg
same,AUC,"[2]; 25 mg, dose number 1, NCA mean",432 µg·h/mL
same,Cmax,"[2]; 25 mg, dose number 1, NCA mean",9600 ng/mL
same,AUC(0-t),"[2]; 25 mg, dose number 1, NCA mean, read-out: AUC0-96",339 µg·h/mL
same,AUC(0-t),"[2]; 25 mg, dose number 1, NCA mean, read-out: AUC0-last",465 µg·h/mL
same,half-life,"[2]; 25 mg, dose number 1, NCA mean, read-out: t1/2 (converted)",149 h
same,AUC,"[2]; 25 mg, dose number 4, NCA mean",841 µg·h/mL
same,Cmax,"[2]; 25 mg, dose number 4, NCA mean",12400 ng/mL
same,AUC(0-t),"[2]; 25 mg, dose number 4, NCA mean, read-out: AUC0-96",589 µg·h/mL
same,AUC(0-t),"[2]; 25 mg, dose number 4, NCA mean, read-out: AUC0-last",611 µg·h/mL
same,half-life,"[2]; 25 mg, dose number 4, NCA mean, read-out: t1/2 (converted)",123 h
same,AUC,"[2]; 50 mg, dose number 1, NCA mean",695 µg·h/mL
same,Cmax,"[2]; 50 mg, dose number 1, NCA mean",15600 ng/mL
same,AUC(0-t),"[2]; 50 mg, dose number 1, NCA mean, read-out: AUC0-96",539 µg·h/mL
same,AUC(0-t),"[2]; 50 mg, dose number 1, NCA mean, read-out: AUC0-last",710 µg·h/mL
same,half-life,"[2]; 50 mg, dose number 1, NCA mean, read-out: t1/2 (converted)",183 h
same,AUC,"[2]; 50 mg, dose number 4, NCA mean",1640 µg·h/mL
same,Cmax,"[2]; 50 mg, dose number 4, NCA mean",21700 ng/mL
same,AUC(0-t),"[2]; 50 mg, dose number 4, NCA mean, read-out: AUC0-96",1120 µg·h/mL
same,AUC(0-t),"[2]; 50 mg, dose number 4, NCA mean, read-out: AUC0-last",1690 µg·h/mL
same,half-life,"[2]; 50 mg, dose number 4, NCA mean, read-out: t1/2 (converted)",228 h
same,AUC,[2]; [4],1210 µg·h/mL
same,Cmax,[2]; [4],29500 ng/mL
same,AUC(0-t),"[2]; 100 mg, dose number 1, NCA mean, read-out: AUC0-96",974 µg·h/mL
same,AUC(0-t),"[2]; 100 mg, dose number 1, NCA mean, read-out: AUC0-last",1210 µg·h/mL
same,half-life,"[2]; 100 mg, dose number 1, NCA mean, read-out: t1/2 (converted)",133 h
same,AUC,[2]; [5],2250 µg·h/mL
same,Cmax,[2]; [5],35600 ng/mL
same,AUC(0-t),"[2]; 100 mg, dose number 4, NCA mean, read-out: AUC0-96",1610 µg·h/mL
same,AUC(0-t),"[2]; 100 mg, dose number 4, NCA mean, read-out: AUC0-last",2380 µg·h/mL
same,half-life,"[2]; 100 mg, dose number 4, NCA mean, read-out: t1/2 (converted)",133 h
same,AUC,[2]; [6],1500 µg·h/mL
same,Cmax,[2]; [6],37100 ng/mL
same,AUC(0-t),"[2]; 150 mg, dose number 1, NCA mean, read-out: AUC0-96",1190 µg·h/mL
same,AUC(0-t),"[2]; 150 mg, dose number 1, NCA mean, read-out: AUC0-last",1440 µg·h/mL
same,half-life,"[2]; 150 mg, dose number 1, NCA mean, read-out: t1/2 (converted)",117 h
same,AUC,[2]; [7],3190 µg·h/mL
same,Cmax,[2]; [7],48600 ng/mL
same,AUC(0-t),"[2]; 150 mg, dose number 4, NCA mean, read-out: AUC0-96",2230 µg·h/mL
same,AUC(0-t),"[2]; 150 mg, dose number 4, NCA mean, read-out: AUC0-last",2780 µg·h/mL
same,half-life,"[2]; 150 mg, dose number 4, NCA mean, read-out: t1/2 (converted)",128 h
same,half-life,"[2]; across all subjects, population PK model, read-out: Mean t1/2 (converted)",141 h
same,Between subject variability of CL,[2]; population PK model,75.6 % CV
same,Between subject variability of Vp,[2]; population PK model,61.2 % CV
same,Apparent central volume (Vc),"[2]; population PK model, IV",2.98 L
same,Apparent clearance (CL),"[2]; population PK model, IV",0.0165 L/h
same,Apparent peripheral volume (Vp),"[2]; population PK model, IV",11.9 L
same,pDC and NK cell activation parameters,pDC and NK cells; 150 mg cohort,unaffected or modestly responsive
same,Subjects with at least two-fold increased numbers of activated pDC or NK cells,"pDC and NK cells; 50 and 100 mg, 2 days after initial dose",six of the ten
same,Inhibition of tumour-associated macrophages (TAM),[3],potently inhibit
